Where a SMILES comes first, the peptide text is derived from it. Bridges are numbered along the chain shown (N, C = ends).
Assays:
[1] = after oral administration at therapeutic dose levels; cited from earlier work
[2] = biological target: T1, guanylate cyclase-C (GC-C) (Homo sapiens, UniProt P25092); assay: cGMP response in T84 cells (GC-C agonist activity); type: cell-based; set-up: tested for guanylate cyclase-C (GC-C) agonist activity in T84 cells; endogenous in cells; host or cells: T84 cells
T1 sequence (P25092 24-1073): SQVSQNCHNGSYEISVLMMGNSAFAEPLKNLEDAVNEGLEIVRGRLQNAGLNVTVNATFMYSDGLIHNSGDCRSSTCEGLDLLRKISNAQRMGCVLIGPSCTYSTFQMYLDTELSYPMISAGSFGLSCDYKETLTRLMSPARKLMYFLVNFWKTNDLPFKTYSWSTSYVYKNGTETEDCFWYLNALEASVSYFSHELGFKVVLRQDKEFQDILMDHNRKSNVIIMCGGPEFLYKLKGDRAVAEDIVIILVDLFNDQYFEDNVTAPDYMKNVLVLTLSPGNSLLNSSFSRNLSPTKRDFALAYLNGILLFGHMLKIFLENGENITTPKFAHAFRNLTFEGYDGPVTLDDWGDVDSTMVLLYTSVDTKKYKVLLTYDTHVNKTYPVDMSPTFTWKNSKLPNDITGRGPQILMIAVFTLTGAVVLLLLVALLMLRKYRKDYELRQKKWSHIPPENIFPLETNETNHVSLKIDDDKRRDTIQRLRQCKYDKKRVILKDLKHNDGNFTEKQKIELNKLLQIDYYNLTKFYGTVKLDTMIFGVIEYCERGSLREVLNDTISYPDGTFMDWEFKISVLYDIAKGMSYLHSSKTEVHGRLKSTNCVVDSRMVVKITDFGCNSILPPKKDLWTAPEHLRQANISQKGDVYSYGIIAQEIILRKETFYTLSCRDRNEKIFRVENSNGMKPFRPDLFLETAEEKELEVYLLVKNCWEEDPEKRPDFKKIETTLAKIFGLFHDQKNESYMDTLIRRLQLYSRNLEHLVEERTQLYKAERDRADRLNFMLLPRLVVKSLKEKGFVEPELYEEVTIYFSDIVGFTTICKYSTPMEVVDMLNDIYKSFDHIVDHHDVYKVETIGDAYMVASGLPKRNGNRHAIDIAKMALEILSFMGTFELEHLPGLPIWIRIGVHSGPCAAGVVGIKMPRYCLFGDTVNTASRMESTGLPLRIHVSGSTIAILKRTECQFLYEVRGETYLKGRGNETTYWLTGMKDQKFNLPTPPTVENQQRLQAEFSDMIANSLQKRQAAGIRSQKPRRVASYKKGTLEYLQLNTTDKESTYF
Experimental: Linaclotide and Cys1-IMD were tested for guanylate cyclase-C (GC-C) agonist activity in T84 cells as follows. In each well of a 96-well plate, approximately 200,000 T84 cells/well was first incubated with 1 mM 3-isobutyl-1-methylxanthine (IBMX) in 0.18 mL of Dulbecco's modified Eagle's medium (DMEM) for 10 minutes at 37° C. Each peptide was diluted to final concentrations ranging from 0.1 to 10,000 nM, and 0.02 mL of each dilution was added in duplicate to a 96-well plate containing the T84 cells, for a final volume of 0.20 mL per well. The peptide reactions were incubated for 30 min at 37° C. Following the incubation, the supernatants were removed and discarded and the cells were lysed with cold 0.1 M hydrochloric acid (HCl) for 30 min on ice. The cell debris was removed by centrifugation and the concentration of guanosine 3′,5′-cyclic monophosphate (cyclic GMP) in each lysate was determined using liquid chromatography with tandem mass spectrometry. The data were used to construct dose-response curves and calculate half-maximal effective concentration (EC50) values for each test article.

[3] = biological target: T1, guanylate cyclase-C (GC-C); assay: Competitive radioligand ([125I]-pSTa) binding assay on T84 cells; set-up: cell-surface GC-C receptors on human colonic epithelial (T84) cells; endogenous in cells; host or cells: T84 human colonic epithelial cells; details: competition with 170 pM [125I]-pSTa for cell-surface GC-C receptors on T84 cells; read-out: inhibition constant (Ki), relative binding affinity
Experimental: The relative binding affinities of linaclotide and Cys1-IMD to the guanylate cyclase-C receptor (GC-C) were determined using a competitive-binding assay in which the peptides competed with a known GC-C agonist, porcine-derived heat-stable enterotoxin (pSTa), for binding sites on cell-surface GC-C receptors on human colonic epithelial (T84) cells. The pSTa was radiolabeled with ^125I to enable measurement of its receptor binding. The competitive-binding assay was performed by adding various concentrations of each peptide (0.1 to 3,000 nM) to 0.20 mL reaction mixtures containing Dulbecco's modified Eagle's medium (DMEM), 0.5% bovine serum albumin (BSA), 2.0×10^5 T84 cells, and 170 pM [^125I]-pSTa (200,000 cpm). The data were used to construct competitive radioligand-binding curves and determine the relative binding affinities of linaclotide and Cys1-IMD, as measured by their IC50 and Ki values.

C[C@@H]1NC(=O)[C@@H]2CCCN2C(=O)[C@H](CC(N)=O)NC(=O)[C@@H]2CSSC[C@H](N)C(=O)N[C@H]3CSSC[C@H](NC1=O)C(=O)N[C@@H]([C@@H](C)O)C(=O)NCC(=O)N[C@H](C(=O)N[C@@H](Cc1ccc(O)cc1)C(=O)O)CSSC[C@H](NC(=O)[C@H](Cc1ccc(O)cc1)NC(=O)[C@H](CCC(=O)O)NC3=O)C(=O)N2 [Linaclotide, Cys Cys Glu Tyr Cys Cys Asn Pro Ala Cys Thr Gly Cys Tyr] (H-CCEYCCNPACTGCY-OH; disulfide 1-6, 2-10, 5-13 (inferred); N-terminus and C-terminus assumed)
levels of linaclotide seen systemically [1]: no detectable levels
EC50 [2]: 315 ± 105 nM
Ki [3]: 3.9 ± 1.6 nM
